Here are results for 18 compounds from patent US7473688B2, “Indolobenzazepine HCV NS5B inhibitors” (Bristol-Myers Squibb Company, priority 2005, dated 2009).

Where two headings read alike, the source gives them in different places.

One assay concerns HCV replicon. As to the kind of experiment: HCV replicon FRET assay. Conditions: Hepatitis C virus, FRET assay, read-out: EC50*. The class given is cell-based. The procedure, abridged: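 HCV replicon cells, with or without Renilla luciferase reporter, incubated with titrated compounds at 37 °C; Alamar blue read for cytotoxicity. NS3 protease activity read from lysates with 20 μM EDANS/DABCYL FRET peptide (340/490 nm, kinetic), or by Dual-Glo luciferase. Background from highest protease-inhibitor wells; EC50 = 50% signal reduction.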
For orientation: Replicon systems follow genome replication, usually without infectious particles.

A further assay addresses T1, HCV NS5B (Hepatitis C virus genotype 1b, UniProt Q9WMX2).
T1 construct: The protein was expressed with an 18 amino acid C-terminal truncation to enhance the solubility; made in house; host or cells: E. coli BL21 (DE3), pET21a
As to the kind of experiment: HCV NS5B RdRp enzyme assay (preincubation protocol). Type of assay: biochemical. The procedure, abridged:
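C-terminally truncated (Δ18) genotype 1b NS5B from E. coli, 14 nM, added to compound, then polyA template (0.2 nM), 3H-UTP (0.29 μM) and oligo-dT12 primer precaptured on streptavidin SPA beads. 4 h at 30 °C, pH 7.5, 2% DMSO; SPA readout; IC50 from seven concentrations by logistic fit.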

T1 sequence (Q9WMX2 2420-2992): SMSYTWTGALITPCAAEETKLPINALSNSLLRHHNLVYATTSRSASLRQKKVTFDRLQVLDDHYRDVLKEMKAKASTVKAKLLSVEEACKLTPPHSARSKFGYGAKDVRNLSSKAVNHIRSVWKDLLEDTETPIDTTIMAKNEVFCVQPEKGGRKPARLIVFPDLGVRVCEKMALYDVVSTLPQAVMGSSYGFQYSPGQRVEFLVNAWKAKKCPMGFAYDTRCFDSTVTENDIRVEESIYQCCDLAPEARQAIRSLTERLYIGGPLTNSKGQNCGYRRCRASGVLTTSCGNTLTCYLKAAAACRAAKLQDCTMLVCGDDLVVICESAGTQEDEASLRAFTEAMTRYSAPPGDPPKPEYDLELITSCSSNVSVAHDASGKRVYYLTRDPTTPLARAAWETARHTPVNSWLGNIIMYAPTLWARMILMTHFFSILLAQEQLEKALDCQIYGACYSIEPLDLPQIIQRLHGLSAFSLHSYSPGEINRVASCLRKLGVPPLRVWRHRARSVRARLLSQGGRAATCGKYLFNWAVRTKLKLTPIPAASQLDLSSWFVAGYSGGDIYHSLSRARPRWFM

As for `COC(=O)c1ccc2c(C3CCCCC3)c3n(c2c1)CC(NC(=O)N1CCOCC1)Cc1ccccc1-3` (stereo not drawn), the EC50 (as a rule, the concentration at which the effect is half-maximal) with HCV replicon (Table 1) is greater than 120 nM. In addition, the IC50 (usually the point on the concentration scale where inhibition reaches its midpoint) at HCV NS5B (Table 1, read-out: IC50*) is greater than 1000 nM.
The corresponding values for `CN(C)S(=O)(=O)NC(=O)c1ccc2c(C3CCCCC3)c3n(c2c1)CC(C(=O)N1CCN2C(=O)c4ccccc4CC2C1)=Cc1ccccc1-3` (stereo not drawn) are 70 to 1000 nM and 10 to 1000 nM.
`COc1ccc2c(c1)C=C(C(=O)N(C)CC(=O)N1CCC1)Cn1c-2c(C2CCCCC2)c2ccc(C(=O)NS(=O)(=O)N(C)C)cc21`: the EC50 in the assay on HCV replicon (Table 1a) is 30 to 1000 nM. Further, the IC50 at HCV NS5B (Table 1a, read-out: IC50*) was 10 to 1000 nM.
For `COc1ccc2c(c1)CC(C(=O)N1CCN(CCO)CC1)Cn1c-2c(C2CCCCC2)c2ccc(C(=O)NS(=O)(=O)N(C)C)cc21` (stereo not drawn), the EC50 in the assay with HCV replicon (Table 1b) lay in the range of 30 to 1000 nM. Also, the IC50 at HCV NS5B (Table 1b, read-out: IC50*) lay within 20 to 1000 nM.
On to `COc1ccc2c(c1)C=C(C(=O)N1CCOCC1)Cn1c-2c(C2CCCCC2)c2ccc(C(=O)NS(=O)(=O)N3CCCC3)cc21`, for which the EC50 with HCV replicon (Table 1b) was in the range of 30 to 1000 nM. In addition, at HCV NS5B (Table 1b, read-out: IC50*), the IC50 was in the range of 20 to 1000 nM.
As for `CN(C)S(=O)(=O)NC(=O)c1ccc2c(C3CCCCC3)c3n(c2c1)CC(C(=O)N1CCN(C(=O)N2CCOCC2)CC1)=Cc1ccccc1-3`, the EC50 in the assay on HCV replicon (Table 1) was 70 to 1000 nM. Moreover, the IC50 on HCV NS5B (Table 1, read-out: IC50*) was in the range of 10 to 1000 nM.
For `COc1ccc2c(c1)C=C(C(=O)N1CCN(S(=O)(=O)N(C)C)CC1)Cn1c-2c(C2CCCCC2)c2ccc(C(=O)NS(=O)(=O)N(C)C)cc21`, in that order: 70 to 1000 nM and 10 to 1000 nM.
As to `COCCN1CCN(C(=O)C2=Cc3ccccc3-c3c(C4CCCCC4)c4ccc(C(=O)NS(=O)(=O)N(C)C)cc4n3C2)CC1`, the EC50 in the assay on HCV replicon (Table 1) lay in the range of 70 to 1000 nM. Besides, the IC50 at HCV NS5B (Table 1, read-out: IC50*) was 10 to 1000 nM.
Take `COc1ccc2c(c1)C=C(C(=O)N1CC(OC)C1)Cn1c-2c(C2CCCCC2)c2ccc(C(=O)NS(=O)(=O)N(C)C)cc21`: in the assay on HCV replicon (Table 1a), the EC50 was in the range of 30 to 1000 nM. Besides, at HCV NS5B (Table 1a, read-out: IC50*), the IC50 was less than 20 nM.
For `CN(CCC1OCCO1)C(=O)C1=Cc2ccccc2-c2c(C3CCCCC3)c3ccc(C(=O)NS(=O)(=O)N(C)C)cc3n2C1`, in the assay with HCV replicon (Table 1), the EC50 was in the range of 70 to 1000 nM. Besides, on HCV NS5B (Table 1, read-out: IC50*), the IC50 lay within 10 to 1000 nM.
For `COc1cccc2c1C=C(C(=O)N1C[C@@H](C)N[C@@H](C)C1)Cn1c-2c(C2CCCCC2)c2ccc(C(=O)O)cc21`, the EC50 in the assay on HCV replicon (Table 1b) fell in the range of 30 to 1000 nM. Also, at HCV NS5B (Table 1b, read-out: IC50*), the IC50 was 20 to 1000 nM.
For `COc1ccc2c(c1)C=C(C(=O)N(C)[C@H](C(=O)O)C(C)C)Cn1c-2c(C2CCCCC2)c2ccc(C(=O)NS(=O)(=O)N(C)C)cc21`, in that order: 30 to 1000 nM and less than 20 nM.
As for `COc1cccc2c1C=C(C(=O)N1CCOC(CF)C1)Cn1c-2c(C2CCCCC2)c2ccc(C(=O)NS(=O)(=O)N(C)C)cc21` (stereo not drawn), the EC50 with HCV replicon (Table 1b) was in the range of 30 to 1000 nM. Also, on HCV NS5B (Table 1b, read-out: IC50*), the IC50 lay within 20 to 1000 nM.
For `COc1ccc2c(c1)C=C(C(=O)N1CCN(c3ccccn3)CC1)Cn1c-2c(C2CCCCC2)c2ccc(C(=O)NS(=O)(=O)N(C)C)cc21`, in that order: 30 to 1000 nM and 20 to 1000 nM.
Take `O=C(NCc1cnn[nH]1)c1ccc2c(C3CCCCC3)c3n(c2c1)CC(C(=O)N1CCOCC1)=Cc1ccccc1-3`: the EC50 in the assay with HCV replicon (Table 1) lay within 70 to 1000 nM. Also, the IC50 on HCV NS5B (Table 1, read-out: IC50*) is 10 to 1000 nM.
On to `COC(=O)c1ccc2c(C3CCCCC3)c3n(c2c1)CC(C(=O)NC1CCOCC1)=Cc1cc(OC)ccc1-3`, for which the EC50 in the assay with HCV replicon (Table 1a) fell in the range of 30 to 1000 nM. Further, on HCV NS5B (Table 1a, read-out: IC50*), the IC50 is 10 to 1000 nM.
As to `CCS(=O)(=O)N1CCN(C(=O)C2=Cc3ccccc3-c3c(C4CCCCC4)c4ccc(C(=O)NS(=O)(=O)N(C)C)cc4n3C2)CC1`, the EC50 in the assay on HCV replicon (Table 1) lay within 70 to 1000 nM. Further, on HCV NS5B (Table 1, read-out: IC50*), the IC50 was in the range of 10 to 1000 nM.
As to `COc1ccc2c(c1)C=C(C(=O)N1CC(C(=O)N(C)C)C1)Cn1c-2c(C2CCCCC2)c2ccc(C(=O)NS(=O)(=O)N(C)C)cc21`, the EC50 in the assay with HCV replicon (Table 1b) fell in the range of 30 to 1000 nM. Further, the IC50 at HCV NS5B (Table 1b, read-out: IC50*) lay within 20 to 1000 nM.
